The numbers were not newly measured in patent US8809326B2, “Isoquinolinone Rho kinase inhibitors” (Aerie Pharmaceuticals, Inc., priority 2006, dated 2014), which cites them from elsewhere.

For series [1] the following is noted: porcine, IL-1 beta-induced, long term treatment.
For series [2] the following is noted: rat stroke model.

On to `O=S(=O)(c1cccc2cnccc12)N1CCCNCC1` [fasudil], for which, in series [1], the coronary constrictive remodeling entry is reported as “promote a regression of coronary constrictive remodeling” and the coronary stenosis entry is “progressively reduce coronary stenosis”. Also, in series [2], the infarct size result is given as “reduce” and the neurologic deficit result was “reduce”.
